Consider four compounds from patent US10857112B2, “Small molecule inhibitors of RNA binding motif (RBM) proteins for the treatment of acute cellular injury” (University of Pittsburgh—Of the Commonwealth System of …, priority 2012, dated 2020).

Data set [1] deals with primary rat cortical neurons. The experiment in a line: STS injury, neuronal viability and cytotoxicity.
Protocol: At D.I.V. 11, ½ media was collected (conditioned media) and mixed with an equal volume fresh neurobasal media (to make the 24 hour treatment media). STS was prepared at the desired concentration in treatment media, with or without experimental drugs (AQ2S or LY294002). The remaining growth maintenance media was replaced with 100 μL, of treatment media per well of a 96-well plate (or 2 mL for a six-well plate) for 24 hours.
The LDH Cytotoxicity Assay Kit II was purchased from Abcam (Cambridge, Mass., USA). Neurons were cultured in 96-well format and subjected to STS injury ±AQ2S for 24 hours (in 100 μL, total media volume). At 23 hours maximum LDH release (positive control) was prepared by adding 10 μL, cell lysis reagent directly to a few non-injured wells (i.e., no STS or AQ2S). At the end of the 24 hour injury period, 80 μL, of media was transferred to a new 96-well plate. Plates were spun at ˜500 g for 5 minutes. 10 μL, of cell culture treatment media was added to a new black-walled plate and advanced WST detection reagent added. The mix was incubated for ˜15 minutes and absorbance measured (OD 450 nm). Fresh culture media was used as a negative control. Cytotoxicity was calculated using the standard formula: cytotoxicity %=(sample LDH−negative-control LDH)/(maximum LDH release−negative-control LDH)×100.
The nature of a further data set: in vitro. The note with it: rat, decrease in neuronal viability, 250 nM STS alone.
Data set [2] has as its system primary rat cortical neurons. The experiment in a line: H2O2 injury, neuronal viability 24 h (CellTiter-Blue). Conditions: 40 μM H2O2.
The test system of a further data set is AKT. Nature of the data set: Western blot of AKT activation (pAKT473). In kind it is cell-based, rat. Conditions: 50 μM; baseline and 250 nM STS 6 hours. The method, then: AKT is a key pro-survival kinase that is dysregulated by acute brain injury. Many diverse therapies used to prevent neuronal death activate AKT, including small molecules, endogenously derived survival proteins, and other non-pharmacology based treatments like therapeutic hypothermia. To further elucidate the mechanisms of AQ2S-mediated neuroprotection, the level of activated (phosphorylated) AKT was measured by western blot.
Neurons used for Western blot analysis for grown in 6-well plates. Briefly, neurons were treated with experimental compounds for the indicated time/conditions. At the end of each experiment, neurons were washed in ice cold PBS and harvested in 65 μL RIPA buffer containing protease inhibitors, phosphatase inhibitors, and EDTA. Extracts were collected in 0.5 mL tubes and sonicated for 20-30 seconds. Cell extracts were then spun at 4° C./16,000 g/10 minutes and stored at −80° C. until use. Frozen extracts were thawed on ice and protein concentration measured using the BCA assay (PIERCE). […] of sample protein was loaded per well of a 7.5% SDS precast gel (Biorad), and run for 30 minutes to 1 hour at 200 V. Kaleidoscope protein standards (Biorad) were run parallel to neuron extracts. Proteins were then transferred to PDVF membranes (run at 100 V/4° C./1.5 hours). PDVF membranes were washed once in tris buffered saline (TBS) and blocked for 1 hour in tris buffered saline/tween-20 with 7.5% nonfat milk (TBS-T/milk). Blots were incubated overnight at 4° C. with primary antibodies in TBS-T/milk. Cell Signaling Technology: phospho-AKT473, AKT Total, phospho-ERK1/2, ERK Total, cleavage caspase-3. Santa Cruz Antibodies: NF-κB p50 subunit, NF-κB p65 subunit, and beta actin. Calbiochem: 4-HNE antibody. Blots were washed 3 times (5 minutes each) with TBS, and incubated with secondary antibodies for 2 hours. Invitrogen: goat anti-rabbit or goat anti-mouse. Blots were washed 3 times (5 minutes each) with TBS, and incubated for 1 minute in HRP detection solution (Amersham). Films were exposed to blots and developed (SRX-101A, Konica Minolta Medical & Graphic Inc.). Re-probed blots (e.g. beta actin, AKT total, ERK total) were stripped in western blot stripping buffer (Fischer Scientific) for 10 minutes, washed once with TBS, re-blocked in TBS-T/milk for 1 hour, and incubated overnight with new primary antibody. Films were scanned (EPSON GT 20,000), and densitometry performed using UN-SCAN-IT software (Silk Scientific).

Data set [3] concerns the target T1, recombinant active caspase-3 (Homo sapiens, UniProt P42574).
T1 construct: The reaction mixture was combined with recombinant active caspase-3 and a DEVD-AFC probe; purchased PromoKine (Heidelberg, Germany)
T1 sequence (P42574 29-175 limits assumed): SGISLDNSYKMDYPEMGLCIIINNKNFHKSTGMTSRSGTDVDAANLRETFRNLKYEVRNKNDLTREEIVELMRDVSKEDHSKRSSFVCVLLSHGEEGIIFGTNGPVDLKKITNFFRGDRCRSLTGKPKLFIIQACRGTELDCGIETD
T1 sequence (P42574 176-277 limits assumed): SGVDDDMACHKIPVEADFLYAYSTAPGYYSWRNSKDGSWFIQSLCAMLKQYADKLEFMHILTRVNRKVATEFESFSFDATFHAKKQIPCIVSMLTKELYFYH
The experiment in a line: In vitro cell-free caspase-3 drug screening assay (DEVD-AFC). In kind it is biochemical.
Protocol: An in vitro caspase drug screening kit was purchased from PromoKine (Heidelberg, Germany), and used according to the manufacturer's instructions. Briefly, all drugs were dissolved in DMSO and diluted in double-distilled water to desired concentration. The reaction mixture was combined with recombinant active caspase-3 and a DEVD-AFC probe. Active caspase-3 cleaves the DEVD-recognition sequence and releases fluorescent AFC. The amount of AFC detected is a measure of caspase-3 activity. Reactions were prepared in black-walled 96-well plates, incubated at 37° C., and AFC release measured with an AFC filter (Ex: 405 nm, Em: 495-505 nM) on a GLOMax-Multi Microplate Reader (Promega).

Another data set concerns PI3K. The note with it: studies in cancer cells; cited from earlier work.

With `CN[C@@H]1C[C@H]2O[C@@](C)([C@@H]1OC)n1c3ccccc3c3c4c(c5c6ccccc6n2c5c31)C(=O)NC4` [STS, staurosporine, reference compound], in data set [1] (250 nM STS alone, 24 h), the “decrease in neuronal viability” value came to 71.5%. This compound displayed a cytotoxicity at 24 h, 250 nM in “in vitro” of 81.1%.
Consider `O=C1c2c(O)cccc2C([C@@H]2O[C@H](CO)[C@@H](O)[C@H](O)[C@H]2O)c2cc(CO)cc(O)c21` (some centres unmarked) [aloin], for which the “neuronal death after H2O2 injury” value in data set [2] (post-treatment, any concentration tested, 24 hours post-injury) was “ineffective at any concentration tested”.
`Cc1cc(O)c2c(c1)C(=O)c1cc(O)cc(O)c1C2=O` [emodin, 6-methyl-1,3,8-trihydroxyanthraquinone]: the “neuronal death after H2O2 injury” value in data set [2] (post-treatment 5 μM, 24 h) is listed as “failed to protect neurons”; in data set [2] (post-treatment 25 μM, 24 h), “failed to protect neurons”; in data set [2] (post-treatment 50 μM, 24 h), “exacerbated cell death”. Besides, the pAKT473 result in the data set with AKT is “abolished baseline and injury induced AKT activation”. The “activity of recombinant caspase-3” value in data set [3] is “not a direct caspase inhibitor in the cell-free assay”. Besides, the IC50 in the data set on PI3K is 3.3 µM.
Take ZVAD-fmk [reference compound]: in data set [1] (250 nM STS co-administered 24 hours), the “cell viability, comparison of neuroprotectants” value was “increased cell viability”. The “activity of recombinant caspase-3” value in data set [3] is “significantly reduced the activity of recombinant caspase-3”.
